Test results published in patent publication US20240158446A1, “CYCLIC COMPOUND HAVING SELECTIVE INHIBITORY ACTION ON KRAS OVER HRAS AND NRAS” (CHUGAI SEIYAKU KABUSHIKI KAISHA, priority 2021, published 2024).
Where two headings read alike, the source gives them in different places. *1 amine or outer side, *2 acyl side, *3 side chain or, on linkers, in order; H or OH if unused. Where a SMILES comes first, the peptide text is derived from it. Bridges are numbered along the chain shown (N, C = ends). [ ]: non-standard residue; d: D form. The star is where a group is joined. hPhe(3-Cl-4-CF3) = N[C@@H](CCc1ccc(C(F)(F)F)c(Cl)c1)C(=O)O; X31 = COCCCN([C@@H](Cc1ccc(C(F)(F)F)cc1)C(=O)[*:2])[*:1]; NPrPhe(4-CF3) = CCCN[C@@H](Cc1ccc(C(F)(F)F)cc1)C(=O)O; NMeGly(cPent) = CN[C@H](C(=O)O)C1CCCC1; Gly(cPent) = N[C@H](C(=O)O)C1CCCC1; Hyp = O=C(O)[C@@H]1C[C@@H](O)CN1; NMeD = CN[C@@H](CC(=O)O)C(=O)O; NMeL = CN[C@@H](CC(C)C)C(=O)O; Morpholide = C1CN(*)CCO1; NMeA = CN[C@@H](C)C(=O)O; Ac5c = NC1(C(=O)O)CCCC1; Aze = O=C(O)[C@@H]1CCN1; Ac4c = NC1(C(=O)O)CCC1; NEtG = CCNCC(=O)O; Sar = CNCC(=O)O

Assays:
[1] = molecular target: GDP-bound KRAS wild-type protein (Homo sapiens, UniProt P01116); test: Binding to KRAS by surface plasmon resonance (SPR), Single Cycle Kinetics; conditions: GDP-bound KRAS wild-type protein, read-out: KRAS KD
Chain of GDP-bound KRAS wild-type protein (P01116 whole entry): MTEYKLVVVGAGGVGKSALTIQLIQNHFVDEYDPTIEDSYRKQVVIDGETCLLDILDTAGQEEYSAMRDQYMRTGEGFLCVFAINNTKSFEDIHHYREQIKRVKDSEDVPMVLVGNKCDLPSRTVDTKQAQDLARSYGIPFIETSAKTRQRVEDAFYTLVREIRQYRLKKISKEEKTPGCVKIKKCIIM

[2] = molecular target: GDP-bound NRAS wild-type protein (Homo sapiens, UniProt P01111); test: Binding to NRAS by surface plasmon resonance (SPR), Single Cycle Kinetics; conditions: SPR, GDP-bound NRAS wild-type protein vs GDP-bound KRAS wild-type protein
Chain of GDP-bound NRAS wild-type protein (P01111 whole entry): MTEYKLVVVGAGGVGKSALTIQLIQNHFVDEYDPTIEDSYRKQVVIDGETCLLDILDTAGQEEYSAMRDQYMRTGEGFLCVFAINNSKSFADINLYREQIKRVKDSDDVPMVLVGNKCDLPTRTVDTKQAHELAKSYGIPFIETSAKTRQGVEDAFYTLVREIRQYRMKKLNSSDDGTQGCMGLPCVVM

[3] = molecular target: GDP-bound HRAS wild-type protein (Homo sapiens, UniProt P01112); test: Binding to HRAS by surface plasmon resonance (SPR), Single Cycle Kinetics; conditions: for HRAS/KRAS (ratio of KD value for HRAS to KD value for KRAS): SPR, GDP-bound HRAS wild-type protein vs GDP-bound KRAS wild-type protein
Chain of GDP-bound HRAS wild-type protein (P01112 whole entry): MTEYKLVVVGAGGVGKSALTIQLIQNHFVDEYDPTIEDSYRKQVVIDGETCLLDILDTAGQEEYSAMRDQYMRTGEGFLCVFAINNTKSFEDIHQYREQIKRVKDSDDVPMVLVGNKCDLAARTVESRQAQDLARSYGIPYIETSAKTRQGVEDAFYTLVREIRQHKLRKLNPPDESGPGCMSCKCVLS

[4] = SPR Single Cycle Kinetics, 1:1 binding model
[5] = SPR, Single Cycle Kinetics, 1:1 binding model

| Kd [1, 4] | SMILES | NRAS/KRAS (ratio of KD value for NRAS to KD value for KRAS) [2] | HRAS/KRAS (ratio of KD value for HRAS to KD value for KRAS) [3] | other results |
| --- | --- | --- | --- | --- |
| 840 pM | CCCN1C(=O)CN(C)C(=O)CN(CC)C(=O)[C@H](C2CCCC2)NC(=O)[C@H](CC(C)C)N(C)C(=O)C[C@@H](C(=O)N2CCOCC2)N(C)C(=O)[C@H](C2CCCC2)N(C)C(=O)C2(CCCC2)NC(=O)[C@@H]2CCCN2C(=O)[C@H](CCc2ccc(C(F)(F)F)c(Cl)c2)NC(=O)CN(C)C(=O)[C@@H]1Cc1ccc(C(F)(F)F)cc1 [PP0293] ([NMeL][Gly(cPent)][NEtG][Sar][NPrPhe(4-CF3)][Sar][hPhe(3-Cl-4-CF3)]P[Ac5c][NMeGly(cPent)][NMeD]-Morpholide; lactam N-11) | B (a compound having 3 or more and less than 10 is denoted as B) | C (A compound having a KD ratio of 0.1 or more and less than 3 is denoted as C) | – |
| – | CCO[C@@H]1C[C@H]2C(=O)NC3(CC(C)(C)C3)C(=O)N(C)[C@@H](C3CCCC3)C(=O)N(C)[C@H](C(=O)N(C)C)CC(=O)N(C)[C@@H](CC)C(=O)N[C@@H]([C@@H](C)CC)C(=O)N(C)CC(=O)N(C)[C@H]3C/C=C\CCN(C3=O)[C@@H](Cc3ccc(C(F)(F)F)cc3)C(=O)N(C)CC(=O)N[C@@H](CCc3ccc(C(F)(F)F)c(OC)c3)C(=O)N2C1 [PP1559] | – | – | Kd [1, 5]: 47 pM; NRAS/KRAS (ratio of KD value for NRAS to KD value for KRAS) ([2]; KD ratio class): A (a compound having 10 or more and less than 20 is denoted as A); HRAS/KRAS (ratio of KD value for HRAS to KD value for KRAS) ([3]; KD ratio class): A (a compound having 10 or more and less than 20 is denoted as A) |
| 180 pM | CCCN1C(=O)[C@@H]2CCN2C(=O)[C@H](C)N(C)C(=O)[C@H]([C@@H](C)CC)NC(=O)[C@H](CC(C)C)N(C)C(=O)C[C@@H](C(=O)N(C)C)NC(=O)[C@H](C2CCCC2)N(C)C(=O)C2(CCC2)NC(=O)[C@@H]2C[C@@H](OCC)CN2C(=O)[C@H](CCc2ccc(C(F)(F)F)c(Cl)c2)NC(=O)CN(C)C(=O)[C@@H]1Cc1ccc(C(F)(F)F)cc1 [PP0384] ([NMeL]I[NMeA][Aze][NPrPhe(4-CF3)][Sar][hPhe(3-Cl-4-CF3)][Hyp](Et)[Ac4c][NMeGly(cPent)]D-NMe2; lactam N-11) | C (A compound having a KD ratio of 0.1 or more and less than 3 is denoted as C) | B (a compound having 3 or more and less than 10 is denoted as B) | – |
| 80 pM | CC[C@H](C)[C@@H]1NC(=O)[C@H](CC(C)C)N(C)C(=O)C[C@@H](C(=O)N2CCOCC2)N(C)C(=O)[C@H](C2CCCC2)N(C)C(=O)C2(CCCC2)NC(=O)[C@@H]2CCCN2C(=O)[C@H](CCc2ccc(C(F)(F)F)c(Cl)c2)NC(=O)CN(C)C(=O)[C@H](Cc2ccc(C(F)(F)F)cc2)N(CCCOC)C(=O)CN(C)C(=O)CN(C)C1=O [PP0133] ([NMeL]I[Sar][Sar][X31][Sar][hPhe(3-Cl-4-CF3)]P[Ac5c][NMeGly(cPent)][NMeD]-Morpholide; lactam N-11) | B (a compound having 3 or more and less than 10 is denoted as B) | C (A compound having a KD ratio of 0.1 or more and less than 3 is denoted as C) | – |
| – | CCO[C@@H]1C[C@H]2C(=O)NC3(CC(C)(C)C3)C(=O)N(C)[C@@H](C3CCCC3)C(=O)N(C)[C@H](C(=O)N(C)C)CC(=O)N(C)[C@H]3CCCCCCc4ccc(cc4)C[C@@H](C(=O)N(C)CC(=O)N[C@@H](CCc4ccc(C(F)(F)F)c(OC)c4)C(=O)N2C1)N1CC/C=C\C[C@@H](C1=O)N(C)C(=O)CN(C1CC1)C(=O)[C@H]([C@@H](C)CC)NC3=O [PP3070] | – | B (a compound having 3 or more and less than 10 is denoted as B) | Kd ([1]; SPR, Single Cycle Kinetics): 170 pM |
| 1900 pM | CCC[C@H]1C(=O)N[C@@H]([C@@H](C)CC)C(=O)N(C)CC(=O)N(C)[C@H]2C/C=C\CCN(C2=O)[C@@H](Cc2ccc(C)cc2)C(=O)N(C)CC(=O)N[C@@H](CCc2ccc(Cl)c(OC)c2)C(=O)N2C[C@H](OCC)C[C@H]2C(=O)NC2(CC(C)(C)C2)C(=O)N(C)[C@@H](C(CC)CC)C(=O)N(C)[C@H](C(=O)N(C)C)CC(=O)N1C [PP2791] | – | – | HRAS/KRAS (ratio of KD value with respect to GDP-bound HRAS wild-type protein to KD value with respect to KRAS) ([3]; SPR KD ratio HRAS/KRAS, class symbols): A (a compound having 10 or more and less than 20 is denoted as A) |
| – | CCO[C@@H]1C[C@H]2C(=O)NC3(CCC3)C(=O)N(C)[C@@H](C(CC)CC)C(=O)N3CCC[C@@H]3CC(=O)N(C)[C@@H](CC)C(=O)N[C@@H]([C@@H](C)CC)C(=O)N(C)CC(=O)N(C)[C@H]3C/C=C\CCN(C3=O)[C@@H](Cc3ccc(C(F)(F)F)cc3)C(=O)N(C)CC(=O)N[C@@H](CCc3cc(F)c(C(F)(F)F)c(F)c3)C(=O)N2C1 [PP1607] | – | – | Kd [1, 5]: 570 pM; HRAS/KRAS (ratio of KD value for HRAS to KD value for KRAS) ([3]; KD ratio class): A (a compound having 10 or more and less than 20 is denoted as A) |
